Assay [1] relates to Cyt c release in A549 cells. As to the kind of experiment: Cyt c release from mitochondria in cells (subcellular fractionation, Western blot). It is filed as cell-based, human. Conditions: 24h. The method, then:
To further test whether Bak is required for BKA-073 induction of Cyt c release, A549 parental, Bak^-/-, Bax^-/- and DKO cells were treated with BKA-073 (1 μM) for 24h, followed by analysis of Cyt c release from mitochondria. […] To further test whether BKA-073 directly induces Cyt c release from isolated mitochondria in a Bak- but not Bax-dependent fashion, purified mitochondria were isolated from A549 parental, Bak^-/-, Bax^-/- and DKO cells. The isolated mitochondria were treated with BKA-073 (1 μM) for 30 min at 30 °C. After centrifugation at 13000 g for 5 min, Cyt c in the supernatant (i.e., Cyt c release) was analyzed by Western blot. […]
Bak proteins was eluted with buffer B (20 mM Tris, pH 8.0, 120 mM NaCl, 300 mM imidazole, 10% glycerol with protease inhibitor). The elution peak of interest was checked by SDS -PAGE electrophoresis. The purified mouse Bak protein was dialyzed with buffer A . […]
Subcellular fractionation
Cells (2 ×107) were washed with cold 1× PBS and resuspended in isotonic mitochondrial buffer (210 mM mannitol, 70 mM sucrose, 1 mM EGTA, 10 mM Hepes, pH 7.5) containing 10% protease inhibitor mixture set I, homogenized with a polytron homogenizer, and then centrifuged at 1000 × g for 5 min to remove the nuclei and unbroken cells. The supernatant was centrifuged at 13,000 × g for 10 min to pellet mitochondria. […] Cyt c was analyzed
A general note: In western blotting, separated proteins are transferred to a membrane and probed.

The test system of assay [2] is MDA-MB-231, MCF7, HCT-116, Ramos, OPM-1, PANC-1 and U2OS cell lines. As to the kind of experiment: Dynamic BH3 profiling in other types of cancer cell lines. Format: cell-based, human. To be noted: 1μM, 16h. The method, then: DBP using Bim peptide was carried out as described previously [24]-[26]. After treatment with BKA-073, venetoclax (ABT-199) or DMSO control for 16h, cells were collected, washed and resuspended at 2 x 10^6 cells/ mL in mannitol experimental buffer (MEB) [150 mM D-mannitol, 10 mM HEPES-KOH (pH 7.5), 50 mM KCl, 20 μM EGTA, 20 μM EDTA, 0.1% BSA, and 5 mM succinate] as described. One volume of the 4x cell suspension was added to one volume of a 4x dye solution containing 4 μM JC-1, […] oligomycin, 0.02% digitonin, 20mM β-mercaptoethanol in MEB. The 2x cell/dye mixture was allowed to rest for 5-10 min at room temperature to allow for permeabilization and JC-1 staining. A total of 15μl of the 2x cell/dye mixture was loaded into a 384-well plate that contained 15µL of Bim BH3 peptide (0.03, 0.1, 0.3, 1, and 3 μM) in MEB, shaken for 15 s inside the reader, and the fluorescence at 590 nm monitored every 5 min for 180 min at 32 °C. The dynamic BH3 profile (∆ % Priming) was calculated as described [24]-[26].
Figure S2. BKA-073 induces mitochondrial priming and apoptosis in various type of cancers. (A) Expression levels of Bak were analyzed by Western blot in various type of cancer cell lines. (B-C) Various type of cancer cell lines were treated with BKA -073 (1µM) for 16h or 72h, followed by analysis of dynamic BH3 profiling (B) or apoptotic cell death (C), respectively. […]

The values that follow come from paper PMC8344021, “Discovery of Small Molecule Bak Activator for Lung Cancer Therapy” (Theranostics, 2021).

Entries after “also recorded” stand apart in the source; their conditions may differ.

For `COc1ccc2nc3ccccc3c(NCCNCC(C)O)c2c1` (stereo not drawn) [BKA-073], the Cyt c release entry is reported as “Cyt c release was observed” in assay [1] (A549 Bax-/- cells, 1 μM) and “promoted Cyt c release from mitochondria; also recorded: Cyt c release was observed” in assay [1] (A549 parental cells). Besides, the “induction of mitochondrial priming” value in assay [2] is “potently induced”.
